For the assay, the system named is Vaccinia virus. Briefly: Antiviral activity against Vaccinia virus infected in HEL cells assessed as protection from virus-induced cytopathogenicity after 2 to 3 days by MTT assay. It counts as functional, organism-based. Conditions: Orthopoxvirus vaccinia. (In general: Cytopathic effects are the visible damage that an infection or toxin causes in cultured cells.)

SMILES strings stand for the structures.

This note sets out measurements from ChEMBL document CHEMBL1154855 (Eur J Med Chem, 2010).

In the case of `NC(=O)c1ncn([C@@H]2O[C@H](CO)[C@@H](O)[C@H]2O)n1` [RIBAVIRIN], the EC50 came to 85000 nM.
In the case of `Nc1nc2c(ncn2COC(CO)CO)c(=O)[nH]1` [GANCICLOVIR] it was greater than 100000 nM; in that of `COc1cc(/C=C/C(=O)C(CCOC(=O)CCC(NC(=O)c2ccc(NCc3cnc4nc(N)[nH]c(=O)c4n3)cc2)C(=O)O)C(=O)/C=C/c2ccc(O)c(OC)c2)ccc1O` (stereo not drawn), greater than 11 nM.
`COc1cc(/C=C/C(=O)CC(=O)/C=C/c2ccc(OC(=O)CCC(NC(=O)c3ccc(NCc4cnc5nc(N)[nH]c(=O)c5n4)cc3)C(=O)O)c(OC)c2)ccc1OC(=O)CCC(NC(=O)c1ccc(NCc2cnc3nc(N)[nH]c(=O)c3n2)cc1)C(=O)O` (stereo not drawn): the EC50 is greater than 82 nM.
As to `O=c1[nH]c(=O)n([C@H]2C[C@H](O)[C@@H](CO)O2)cc1/C=C/Br` [BRIVUDINE], the 50% effective concentration (EC50) was found to be 2000 nM.
The figure for `COc1cc(/C=C/C(=O)CC(=O)/C=C/c2ccc(OC(=O)[C@H](Cc3ccccc3)NC(=O)[C@@H](N)Cc3c[nH]c4ccccc34)c(OC)c2)ccc1OC(=O)[C@H](Cc1ccccc1)NC(=O)[C@@H](N)Cc1c[nH]c2ccccc12` is greater than 38 nM; for `COc1cc(/C=C/C(=O)CC(=O)/C=C/c2ccc(OCCOC(=O)CCC(NC(=O)c3ccc(NCc4cnc5nc(N)[nH]c(=O)c5n4)cc3)C(=O)O)c(OC)c2)ccc1O` (stereo not drawn) it is greater than 119 nM.
On to `CCCCCCCCCC(=O)Oc1ccc(/C=C/C(=O)CC(=O)/C=C/c2ccc(OC(=O)CCCCCCCCC)c(OC)c2)cc1OC`, for which the EC50 is greater than 147 nM.

Usually EC50 stands for the midpoint of the concentration-response curve.
